These results are taken from BindingDB's records for doi:10.1016/j.bmc.2010.01.042 (Nerviano Medical Sciences, 2010).

pIC50: −log10 of the molar value.

The target of the assay is 3-phosphoinositide-dependent protein kinase 1 (Homo sapiens) (UniProt O15530). As to the kind of experiment: Inhibition of PDK1 by scintillation proximity assay.

`CC(C)(C)C(=O)N1Cc2c(n[nH]c2NC(=O)c2cc(F)cc(F)c2)C1(C)C` [N-[5-(2,2-Dimethylpropanoyl)-6,6-dimethyl-1,4,5,6-tetrahydropyrrolo[3,4-c]pyrazol-3-yl]-3,5-difluorobenzamide] gave a pIC50 of less than 5.00.
The molecule `CC(C)CC(=O)Nc1[nH]nc2c1CN(C(=O)C1CCN(C)CC1)C2(C)C` gave a pIC50 of less than 5.00.
